One assay relates to pro MMP-9 protein. The assay can be described thus: Inhibitory activity against proMMP-9 protein production (TNF α-stimulated mouse peritoneal exudate cells, ELISA). The assay is classed as cell-based, C57BL/6J mice. Particulars: relative activity when the value of Comparative Agent 1 (IC50 = 10.04 ± 4.11 μM) is 10, on the increase of pro MMP-9 by TNF α 25 ng/ml, 24 hours, read-out: IC50 (μM)*. The procedure:
(§1) To 7- to 9-week male C57BL/6J mice (purchased from CLEA Japan, Inc. or Japan SLC, Inc.), Zymosan A (SIGMA) derived from budding yeasts which is adjusted to be 1 mg/ml in a phosphate buffer solution (PBS, 10010-49, Invitrogen) was administered intraperitoneally at 1 ml per mouse to induce peritonitis. Three days later, filter-sterilized cell recovery buffer (2 mM EDTA, 0.5% bovine serum albumin, PBS, pH 7.4) was administered intraperitoneally at 5 ml per mouse to recover peritoneal exudata cells. The cells went through a cell strainer (70 μm nylon, FALCON) and were then washed twice with a Hanks solution (Invitrogen). The cells were suspended in 10% fetal calf serum-containing Dulbecco's modified Eagle's culture medium (Invitrogen). The suspension was seeded on a plate with 48 wells, after 6 hours, the culture medium was completely exchanged. After culturing for another 18 hours, test compounds were added at 0.02 to 20 μM of the final concentration. After 1 hour from the addition of the compounds, a tumor necrosis factor (TNF) α (R & D Systems) was added at 25 ng/ml of the final concentration, and 24 hours later, the culture supernatant was collected. The amount of pro MMP-9 protein in the supernatant was quantified by an enzyme-linked immunosorbent assay (ELISA) (R & D Systems), IC50 values of the test compounds on the increased amount by TNF α stimuli, were calculated by ORIGIN analysis software (trade name: OriginLab). In addition, minimal inhibitory concentration (MIC) of each test compounds (measured bacterium: Staphylococcus aureus ATCC29213) was measured. As a comparative agent […] A (clarithromycin) was used.
For orientation: An ELISA detects its analyte on a solid surface through an enzyme-linked reagent.

The subject of assay [1] is Staphylococcus aureus ATCC29213. The assay can be described thus: Minimal inhibitory concentration (MIC). The assay is classed as cell-based. The method, then: as §1

The structures appear in SMILES notation. ≈ marks a conversion by molar mass, not a printed value.

A word on the IC50: it is the point on the concentration scale where inhibition reaches its midpoint. In general, MIC refers to the lowest concentration that inhibits growth of the organism. Turning to `CC[C@H]1OC(=O)[C@H](C)[C@@H](O[C@H]2C[C@@](C)(OC)[C@@H](O)[C@H](C)O2)[C@H](C)[C@@H](O[C@@H]2O[C@H](C)C[C@@H](N(C)Cc3ccccc3)[C@@H]2N(C)C)[C@@](C)(OC)C[C@@H](C)C(=O)[C@H](C)[C@@H](O)[C@]1(C)O` [Example 171, 3′-N-demethyl-2′-deoxy-2′-dimethylamino-3′-N-benzyl-6-O-methylerythromycin A], the IC50 with pro MMP-9 protein was 1.45 µM. The MIC in assay [1] was over 128 µg/mL.
The corresponding values for `CC[C@H]1OC(=O)[C@H](C)[C@@H](O[C@H]2C[C@@](C)(OC)[C@@H](O)[C@H](C)O2)[C@H](C)[C@@H](O[C@@H]2O[C@H](C)C[C@@H](N(C)CCO)[C@@H]2N(C)C)[C@@](C)(OC)C[C@@H](C)C(=O)[C@H](C)[C@@H](O)[C@]1(C)O` [Example 173, 3′-N-demethyl-2′-deoxy-2′-dimethylamino-3′-N-(2-hydroxyethyl)-6-O-methylerythromycin A] are 4.95 µM and over 128 µg/mL.
The corresponding values for `CC[C@H]1OC(=O)[C@H](C)[C@@H](O[C@H]2C[C@@](C)(OC)[C@@H](OC(C)=O)[C@H](C)O2)[C@H](C)[C@@H](O[C@@H]2O[C@H](C)C[C@@H](NC)[C@@H]2N(C)C)[C@@](C)(OC)C[C@@H](C)C(=O)[C@H](C)[C@@H](O)[C@]1(C)O` [Example 174, 4″-O-acetyl-3′-N-demethyl-2′-deoxy-2′-dimethylamino-6-O-methylerythromycin A] are 1.7 µM and over 128 µg/mL.
The corresponding values for `CC[C@H]1OC(=O)[C@H](C)[C@@H](O[C@H]2C[C@@](C)(OC)[C@@H](O)[C@H](C)O2)[C@H](C)[C@@H](O[C@@H]2O[C@H](C)C[C@@H](NC)[C@@H]2N(C)C)[C@@](C)(OC)C[C@@H](C)C(=O)[C@H](C)[C@@H](O)[C@]1(C)O` [Example 175, 3′-N-demethyl-2′-deoxy-2′-dimethylamino-6-O-methylerythromycin A] are 1.65 µM and 128 µg/mL (≈ 168 µM).
For `CC[C@H]1OC(=O)[C@H](C)[C@@H](O[C@H]2C[C@@](C)(OC)[C@@H](OC(C)=O)[C@H](C)O2)[C@H](C)[C@@H](O[C@@H]2O[C@H](C)C[C@@H](N3CCOCC3)[C@@H]2N(C)C)[C@@](C)(OC)C[C@@H](C)C(=O)[C@H](C)[C@@H](O)[C@]1(C)O` [Example 177, 4″-O-acetyl-3′-dedimethylamino-2′-deoxy-2′-dimethylamino-3′-(4-morpholino)-6-O-methylerythromycin A], in the assay with pro MMP-9 protein, the IC50 worked out at 4.42 µM. The compound also yielded an MIC in assay [1] of over 128 µg/mL.
Regarding `CC[C@H]1OC(=O)[C@H](C)[C@@H](O[C@H]2C[C@@](C)(OC)[C@@H](O)[C@H](C)O2)[C@H](C)[C@@H](O[C@@H]2O[C@H](C)C[C@@H](N3CCOCC3)[C@@H]2N(C)C)[C@@](C)(OC)C[C@@H](C)C(=O)[C@H](C)[C@@H](O)[C@]1(C)O` [Example 178, 3′-dedimethylamino-2′-deoxy-2′-dimethylamino-3′-(4-morpholino)-6-O-methylerythromycin A], the IC50 with pro MMP-9 protein amounted to 3.1 µM. In assay [1], this compound gave an MIC of over 128 µg/mL.
The corresponding values for `CC[C@H]1OC(=O)[C@H](C)[C@@H](O[C@H]2C[C@@](C)(OC)[C@@H](O)[C@H](C)O2)[C@H](C)[C@@H](O[C@@H]2O[C@H](C)C[C@@H](N(C)Cc3ccc(N4CCOCC4)cc3)[C@@H]2N(C)C)[C@@](C)(OC)C[C@@H](C)C(=O)[C@H](C)[C@@H](O)[C@]1(C)O` [Example 182, 3′-N-demethyl-2′-deoxy-2′-dimethylamino-3′-N-(4-(4-morpholino)benzyl)methyl-6-O-methylerythromycin A] are 1.72 µM and over 128 µg/mL.
The corresponding values for `CC[C@H]1OC(=O)[C@H](C)[C@@H](O[C@H]2C[C@@](C)(OC)[C@@H](OC(C)=O)[C@H](C)O2)[C@H](C)[C@@H](O[C@@H]2O[C@H](C)C[C@@H](N(C)S(C)(=O)=O)[C@@H]2N(C)C)[C@@](C)(OC)C[C@@H](C)C(=O)[C@H](C)[C@@H](O)[C@]1(C)O` [Example 185, 4″-O-acetyl-3′-N-demethyl-2′-deoxy-2′-dimethylamino-3′-N-methanesulfonyl-6-O-methylerythromycin A] are 2.4 µM and over 128 µg/mL.
The corresponding values for `CC[C@H]1OC(=O)[C@H](C)[C@@H](O[C@H]2C[C@@](C)(OC)[C@@H](O)[C@H](C)O2)[C@H](C)[C@@H](O[C@@H]2O[C@H](C)C[C@@H](N(C)S(C)(=O)=O)[C@@H]2N(C)C)[C@@](C)(OC)C[C@@H](C)C(=O)[C@H](C)[C@@H](O)[C@]1(C)O` [Example 186, 3′-N-demethyl-2′-deoxy-2′-dimethylamino-3′-N-methanesulfonyl-6-O-methylerythromycin A] are 4.01 µM and over 128 µg/mL.
Regarding `CC[C@H]1OC(=O)[C@H](C)[C@@H](O[C@H]2C[C@@](C)(OC)[C@@H](OC(C)=O)[C@H](C)O2)[C@H](C)[C@@H](O[C@@H]2O[C@H](C)C[C@@H](N(C)Cc3ccncc3)[C@@H]2N(C)C)[C@@](C)(OC)C[C@@H](C)C(=O)[C@H](C)[C@@H](O)[C@]1(C)O` [Example 187, 4″-O-acetyl-3′-N-demethyl-2′-deoxy-2′-dimethylamino-3′-N-(4-pyridylmethylamino)-6-O-methylerythromycin A], the IC50 with pro MMP-9 protein came out at 1.37 µM. The compound further gave an MIC in assay [1] of over 128 µg/mL.
As for `CC[C@H]1OC(=O)[C@H](C)[C@@H](O[C@H]2C[C@@](C)(OC)[C@@H](O)[C@H](C)O2)[C@H](C)[C@@H](O[C@@H]2O[C@H](C)C[C@@H](N(C)Cc3ccncc3)[C@@H]2N(C)C)[C@@](C)(OC)C[C@@H](C)C(=O)[C@H](C)[C@@H](O)[C@]1(C)O` [Example 188, 3′-N-demethyl-2′-deoxy-2′-dimethylamino-3′-N-(4-pyridylmethyl)-6-O-methylerythromycin A], the IC50 with pro MMP-9 protein was determined as 3.24 µM. In addition, in assay [1], the MIC was over 128 µg/mL.
The corresponding values for `CC[C@H]1OC(=O)[C@H](C)[C@@H](O[C@H]2C[C@@](C)(OC)[C@@H](OC(C)=O)[C@H](C)O2)[C@H](C)[C@@H](O[C@@H]2O[C@H](C)C[C@@H](N(C)Cc3cccnc3)[C@@H]2N(C)C)[C@@](C)(OC)C[C@@H](C)C(=O)[C@H](C)[C@@H](O)[C@]1(C)O` [Example 189, 4″-O-acetyl-3′-N-demethyl-2′-deoxy-2′-dimethylamino-3′-N-(3-pyridylmethyl)-O-methylerythromycin A] are 3.38 µM and over 128 µg/mL.
In the case of `CC[C@H]1OC(=O)[C@H](C)[C@@H](O[C@H]2C[C@@](C)(OC)[C@@H](O)[C@H](C)O2)[C@H](C)[C@@H](O[C@@H]2O[C@H](C)C[C@@H](N(C)Cc3cccnc3)[C@@H]2N(C)C)[C@@](C)(OC)C[C@@H](C)C(=O)[C@H](C)[C@@H](O)[C@]1(C)O` [Example 190, 3′-N-demethyl-2′-deoxy-2′-dimethylamino-3′-N-(3-pyridylmethyl)-6-O-methylerythromycin A], the IC50 in the assay with pro MMP-9 protein turned out to be 3.82 µM. This compound also had an MIC in assay [1] of over 128 µg/mL.
The corresponding values for `CC[C@H]1OC(=O)[C@H](C)[C@@H](O[C@H]2C[C@@](C)(OC)[C@@H](OC(C)=O)[C@H](C)O2)[C@H](C)[C@@H](O[C@@H]2O[C@H](C)C[C@@H](N(C)Cc3ccccn3)[C@@H]2N(C)C)[C@@](C)(OC)C[C@@H](C)C(=O)[C@H](C)[C@@H](O)[C@]1(C)O` [Example 191, 4″-O-acetyl-3′-N-demethyl-2′-deoxy-2′-dimethylamino-3′-N-(2-pyridylmethyl)-6-O-methylerythromycin A] are 1.42 µM and 128 µg/mL (≈ 143 µM).
The corresponding values for `CC[C@H]1OC(=O)[C@H](C)[C@@H](O[C@H]2C[C@@](C)(OC)[C@@H](O)[C@H](C)O2)[C@H](C)[C@@H](O[C@@H]2O[C@H](C)C[C@@H](N(C)Cc3ccccn3)[C@@H]2N(C)C)[C@@](C)(OC)C[C@@H](C)C(=O)[C@H](C)[C@@H](O)[C@]1(C)O` [Example 192, 3′-N-demethyl-2′-deoxy-2′-dimethylamino-3′-N-(2-pyridylmethyl)-6-O-methylerythromycin A] are 2.46 µM and over 128 µg/mL.
The corresponding values for `CC[C@H]1OC(=O)[C@H](C)[C@@H](O[C@H]2C[C@@](C)(OC)[C@@H](O)[C@H](C)O2)[C@H](C)[C@@H](O[C@@H]2O[C@H](C)C[C@@H](N(C)CCc3ccccc3)[C@@H]2N(C)C)[C@@](C)(OC)C[C@@H](C)C(=O)[C@H](C)[C@@H](O)[C@]1(C)O` [Example 194, 3′-N-demethyl-2′-deoxy-2′-dimethylamino-3′-N-(2-phenethyl)-6-O-methylerythromycin A] are 1.23 µM and over 128 µg/mL.
Take `CC[C@H]1OC(=O)[C@H](C)[C@@H](O[C@H]2C[C@@](C)(OC)[C@@H](OC(C)=O)[C@H](C)O2)[C@H](C)[C@@H](O[C@@H]2O[C@H](C)C[C@@H](N(C)CCCO)[C@@H]2N(C)C)[C@@](C)(OC)C[C@@H](C)C(=O)[C@H](C)[C@@H](O)[C@]1(C)O` [Example 198, 4″-O-acetyl-3′-N-demethyl-2′-deoxy-2′-dimethylamino-3′-N-(3-hydroxypropyl)-6-O-methylerythromycin A]: in the assay on pro MMP-9 protein, the IC50 was 2.88 µM. The MIC in assay [1] was over 128 µg/mL.

For the origin of these results see patent publication US8124744B2, “Macrolide derivatives” (Taisho Pharmaceutical Co., Ltd., priority 2006, dated 2012).
